From ChEMBL document CHEMBL1201862, “PubChem BioAssay data set” (2004)
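Exposure lasted 48 hours, with cells grown in 96-well plates and compounds tested at five concentrations. Here, GI50 denotes the concentration required for 50% inhibition of growth.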 Calls of active or inactive are those of the source. Cut-off read from the data, not from the text of the source: active = GI50 up to about 1.1 µM and inactive = higher.

Experiments:
Test in all cases: growth of human tumour cells (NCI), 48 h
[1] = test system: ACHN
[2] = test system: BT-549
[3] = test system: CCRF-CEM
[4] = test system: COLO 205
[5] = test system: EKVX
[6] = test system: HL-60
[7] = test system: IGROV-1
[8] = test system: M14
[9] = test system: MCF7
[10] = test system: MDA-MB-435
[11] = test system: NCI-H226
[12] = test system: NCI-H522
[13] = test system: OVCAR-5
[14] = test system: SF-268
[15] = test system: SK-MEL-2
[16] = test system: SK-OV-3
[17] = test system: SNB-19
[18] = test system: SR
[19] = test system: T47D
[20] = test system: U-251

| Compound | GI50 [1] | GI50 [2] | GI50 [3] | GI50 [4] | GI50 [5] | GI50 [6] | GI50 [7] | GI50 [8] | GI50 [9] | GI50 [10] | GI50 [11] | GI50 [12] | GI50 [13] | GI50 [14] | GI50 [15] | GI50 [16] | GI50 [17] | GI50 [18] | GI50 [19] | GI50 [20] |
| --- | --- | --- | --- | --- | --- | --- | --- | --- | --- | --- | --- | --- | --- | --- | --- | --- | --- | --- | --- | --- |
| CC(C)(C)c1cc(OCc2nnc3sc(Cc4ccccc4)nn23)c(Cl)cc1OCc1nnc2sc(Cc3ccccc3)nn12 | 24.9 µM (inactive) | 21.5 µM (inactive) | 3.27 µM (inactive) | 21.6 µM (inactive) | 27.3 µM (inactive) | 23.8 µM (inactive) | 22 µM (inactive) | 29 µM (inactive) | 17.7 µM (inactive) | 24.1 µM (inactive) | > 100 µM (inactive) | 37.2 µM (inactive) | 29 µM (inactive) | 44.2 µM (inactive) | 37.8 µM (inactive) | 34 µM (inactive) | 33.5 µM (inactive) | 3.52 µM (inactive) | 9.59 µM (inactive) | 13.9 µM (inactive) |
| Clc1ccc(C2NN=C3c4ccccc4OCC32)cc1 (stereo not given) | 14.9 µM (inactive) | 13.5 µM (inactive) | 4.29 µM (inactive) | 2.96 µM (inactive) | 3.59 µM (inactive) | 3.15 µM (inactive) | 3.2 µM (inactive) | 2.84 µM (inactive) | 3.68 µM (inactive) | 2.38 µM (inactive) | 2.92 µM (inactive) | 1.5 µM (inactive) | 8.87 µM (inactive) | 5.36 µM (inactive) | 3.48 µM (inactive) | 5.82 µM (inactive) | 5.42 µM (inactive) | 1.86 µM (inactive) | 5.83 µM (inactive) | 4.09 µM (inactive) |
| COc1cc(NC=C2C(=O)OC(C)(C)OC2=O)c(OC)c(C)c1OC | > 100 µM (inactive) | > 100 µM (inactive) | > 100 µM (inactive) | > 100 µM (inactive) | > 100 µM (inactive) | > 100 µM (inactive) | > 100 µM (inactive) | > 100 µM (inactive) | > 100 µM (inactive) | > 100 µM (inactive) | > 100 µM (inactive) | > 100 µM (inactive) | > 100 µM (inactive) | > 100 µM (inactive) | > 100 µM (inactive) | > 100 µM (inactive) | > 100 µM (inactive) | > 100 µM (inactive) | > 100 µM (inactive) | > 100 µM (inactive) |
| COc1ccc(S(=O)(=O)O)cc1NS(=O)(=O)c1ccc(C)cc1 | > 100 µM (inactive) | > 100 µM (inactive) | > 100 µM (inactive) | > 100 µM (inactive) | > 100 µM (inactive) | > 100 µM (inactive) | > 100 µM (inactive) | > 100 µM (inactive) | > 100 µM (inactive) | > 100 µM (inactive) | > 100 µM (inactive) | > 100 µM (inactive) | > 100 µM (inactive) | > 100 µM (inactive) | > 100 µM (inactive) | > 100 µM (inactive) | > 100 µM (inactive) | > 100 µM (inactive) | > 100 µM (inactive) | > 100 µM (inactive) |
| Cc1c(S(=O)(=O)O)ccc(/N=N/c2c(O)c(C(=O)O)cc3ccccc23)c1Cl | > 100 µM (inactive) | > 100 µM (inactive) | > 100 µM (inactive) | > 100 µM (inactive) | > 100 µM (inactive) | > 100 µM (inactive) | > 100 µM (inactive) | > 100 µM (inactive) | > 100 µM (inactive) | > 100 µM (inactive) | > 100 µM (inactive) | > 100 µM (inactive) | > 100 µM (inactive) | > 100 µM (inactive) | > 100 µM (inactive) | > 100 µM (inactive) | > 100 µM (inactive) | > 50.2 µM (inactive) | > 100 µM (inactive) | > 92.5 µM (inactive) |
| OCC12C3C4C5C3C1C5C42 (stereo not given) | > 100 µM (inactive) | > 100 µM (inactive) | > 100 µM (inactive) | > 100 µM (inactive) | > 100 µM (inactive) | > 100 µM (inactive) | 47.3 µM (inactive) | > 100 µM (inactive) | > 100 µM (inactive) | > 100 µM (inactive) | > 100 µM (inactive) | > 100 µM (inactive) | > 100 µM (inactive) | > 100 µM (inactive) | > 100 µM (inactive) | > 100 µM (inactive) | > 100 µM (inactive) | > 100 µM (inactive) | > 100 µM (inactive) | > 100 µM (inactive) |
| CC(O)CCC(=O)c1ccoc1 (stereo not given) | 5640 µM (inactive) | 2920 µM (inactive) | 5650 µM (inactive) | 5580 µM (inactive) | 6080 µM (inactive) | 3350 µM (inactive) | 7290 µM (inactive) | > 9420 µM (inactive) | 5680 µM (inactive) | > 10000 µM (inactive) | 5610 µM (inactive) | 3680 µM (inactive) | 7820 µM (inactive) | 7000 µM (inactive) | 7710 µM (inactive) | 6970 µM (inactive) | 7000 µM (inactive) | > 9290 µM (inactive) | 5010 µM (inactive) | 6780 µM (inactive) |
| O=C(c1c(F)c(F)c(F)c(F)c1F)c1c(F)c(F)c(F)c(F)c1F | 1.7 µM (inactive) | 2.46 µM (inactive) | 0.0553 µM (active) | 1.45 µM (inactive) | 1.96 µM (inactive) | 0.48 µM (active) | 1.3 µM (inactive) | 2.1 µM (inactive) | 0.299 µM (active) | 1.56 µM (inactive) | 3.51 µM (inactive) | 0.182 µM (active) | 1.9 µM (inactive) | 2.55 µM (inactive) | 2.24 µM (inactive) | 2.39 µM (inactive) | 4.06 µM (inactive) | 0.174 µM (active) | 1.69 µM (inactive) | 0.951 µM (active) |
| COc1cc(C2c3cc4c(cc3OC(N3CCNCC3)C2C)OCO4)cc(OC)c1OC (stereo not given) | 1.75 µM (inactive) | 0.579 µM (active) | 0.538 µM (active) | 0.416 µM (active) | 6.38 µM (inactive) | 0.288 µM (active) | 1.17 µM (inactive) | 0.873 µM (active) | 0.385 µM (active) | 0.269 µM (active) | 1.83 µM (inactive) | 0.861 µM (active) | 5.13 µM (inactive) | 0.836 µM (active) | 1 µM (active) | 0.476 µM (active) | 0.912 µM (active) | 0.441 µM (active) | 0.979 µM (active) | 0.675 µM (active) |
| C=C1CC(COc2ccc3c(C)c(C)c(=O)oc3c2C)(c2ccccc2)OC1=O (stereo not given) | 3.51 µM (inactive) | 1.63 µM (inactive) | 0.333 µM (active) | 1.6 µM (inactive) | 7.55 µM (inactive) | 0.711 µM (active) | 1.73 µM (inactive) | 1.57 µM (inactive) | 1.42 µM (inactive) | 2.7 µM (inactive) | 2.27 µM (inactive) | 1.64 µM (inactive) | 9.02 µM (inactive) | 2.64 µM (inactive) | 2.02 µM (inactive) | 3.28 µM (inactive) | 13.5 µM (inactive) | 1.46 µM (inactive) | 2.07 µM (inactive) | 7.64 µM (inactive) |
